# Results from US8192962B2, “Processes for detecting toxic substances” (Daikin Industries, Ltd., priority 2001, dated 2012).
# Tested on: Mitochondria-located protein genes
# Test: DNA chip mRNA expression in yeast, mitochondria-located protein genes (Table 2)
# Assay type: cell-based, Saccharomyces cerevisiae S288C
# Conditions: cells incubated two hours with the chemical substance
# Method in brief: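 In this screen, yeast in logarithmic growth are challenged for two hours with a toxic substance at a non-lethal inhibitory concentration. Their mRNA, converted to Cy3- or Cy5-labeled cDNA, hybridizes at 65° C. to a chip spanning every yeast gene, and expression is expressed as a ratio to untreated cells.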
substance,measurement,setting,value
manganese ethylenebis(dithiocarbamate) [(8)],The level of expressed mRNA in the presence of chemical substance/The level of expressed mRNA in the absence of chemical substance,yeast gene YAL039C,1.2
same,The level of expressed mRNA in the presence of chemical substance/The level of expressed mRNA in the absence of chemical substance,yeast gene YBL022C,0.4
same,The level of expressed mRNA in the presence of chemical substance/The level of expressed mRNA in the absence of chemical substance,yeast gene YBL030C,0.8
same,The level of expressed mRNA in the presence of chemical substance/The level of expressed mRNA in the absence of chemical substance,yeast gene YBL038W,1.6
same,The level of expressed mRNA in the presence of chemical substance/The level of expressed mRNA in the absence of chemical substance,yeast gene YBL099W,0.8
same,The level of expressed mRNA in the presence of chemical substance/The level of expressed mRNA in the absence of chemical substance,yeast gene YBR003W,0.9
same,The level of expressed mRNA in the presence of chemical substance/The level of expressed mRNA in the absence of chemical substance,yeast gene YBR044C,1.1
same,The level of expressed mRNA in the presence of chemical substance/The level of expressed mRNA in the absence of chemical substance,yeast gene YBR091C,1.5
same,The level of expressed mRNA in the presence of chemical substance/The level of expressed mRNA in the absence of chemical substance,yeast gene YBR122C,1.3
same,The level of expressed mRNA in the presence of chemical substance/The level of expressed mRNA in the absence of chemical substance,yeast gene YBR185C,1.1
same,The level of expressed mRNA in the presence of chemical substance/The level of expressed mRNA in the absence of chemical substance,yeast gene YBR221C,0.8
same,The level of expressed mRNA in the presence of chemical substance/The level of expressed mRNA in the absence of chemical substance,yeast gene YBR251W,1.3
same,The level of expressed mRNA in the presence of chemical substance/The level of expressed mRNA in the absence of chemical substance,yeast gene YBR282W,1.4
same,The level of expressed mRNA in the presence of chemical substance/The level of expressed mRNA in the absence of chemical substance,yeast gene YCL057W,1.8
same,The level of expressed mRNA in the presence of chemical substance/The level of expressed mRNA in the absence of chemical substance,yeast gene YCR046C,0.9
same,The level of expressed mRNA in the presence of chemical substance/The level of expressed mRNA in the absence of chemical substance,yeast gene YCR083W,1.5
same,The level of expressed mRNA in the presence of chemical substance/The level of expressed mRNA in the absence of chemical substance,yeast gene YDL067C,1.1
same,The level of expressed mRNA in the presence of chemical substance/The level of expressed mRNA in the absence of chemical substance,yeast gene YDL181W,0.6
same,The level of expressed mRNA in the presence of chemical substance/The level of expressed mRNA in the absence of chemical substance,yeast gene YDL198C,1.1
same,The level of expressed mRNA in the presence of chemical substance/The level of expressed mRNA in the absence of chemical substance,yeast gene YDR079W,2.6
same,The level of expressed mRNA in the presence of chemical substance/The level of expressed mRNA in the absence of chemical substance,yeast gene YDR178W,0.9
same,The level of expressed mRNA in the presence of chemical substance/The level of expressed mRNA in the absence of chemical substance,yeast gene YDR231C,1.3
same,The level of expressed mRNA in the presence of chemical substance/The level of expressed mRNA in the absence of chemical substance,yeast gene YDR258C,1.9
same,The level of expressed mRNA in the presence of chemical substance/The level of expressed mRNA in the absence of chemical substance,yeast gene YDR298C,1.2
same,The level of expressed mRNA in the presence of chemical substance/The level of expressed mRNA in the absence of chemical substance,yeast gene YDR347W,1.2
same,The level of expressed mRNA in the presence of chemical substance/The level of expressed mRNA in the absence of chemical substance,yeast gene YDR377W,1.3
same,The level of expressed mRNA in the presence of chemical substance/The level of expressed mRNA in the absence of chemical substance,yeast gene YDR529C,1.3
same,The level of expressed mRNA in the presence of chemical substance/The level of expressed mRNA in the absence of chemical substance,yeast gene YEL024W,1.0
same,The level of expressed mRNA in the presence of chemical substance/The level of expressed mRNA in the absence of chemical substance,yeast gene YEL039C,1.1
same,The level of expressed mRNA in the presence of chemical substance/The level of expressed mRNA in the absence of chemical substance,yeast gene YER178W,0.8
same,The level of expressed mRNA in the presence of chemical substance/The level of expressed mRNA in the absence of chemical substance,yeast gene YFL016C,0.7
same,The level of expressed mRNA in the presence of chemical substance/The level of expressed mRNA in the absence of chemical substance,yeast gene YGL018C,0.8
same,The level of expressed mRNA in the presence of chemical substance/The level of expressed mRNA in the absence of chemical substance,yeast gene YGL187C,0.7
same,The level of expressed mRNA in the presence of chemical substance/The level of expressed mRNA in the absence of chemical substance,yeast gene YGL191W,1.6
same,The level of expressed mRNA in the presence of chemical substance/The level of expressed mRNA in the absence of chemical substance,yeast gene YGR008C,1.9
same,The level of expressed mRNA in the presence of chemical substance/The level of expressed mRNA in the absence of chemical substance,yeast gene YGR028W,1.4
same,The level of expressed mRNA in the presence of chemical substance/The level of expressed mRNA in the absence of chemical substance,yeast gene YGR062C,0.8
same,The level of expressed mRNA in the presence of chemical substance/The level of expressed mRNA in the absence of chemical substance,yeast gene YGR076C,1.9
same,The level of expressed mRNA in the presence of chemical substance/The level of expressed mRNA in the absence of chemical substance,yeast gene YGR082W,0.8
same,The level of expressed mRNA in the presence of chemical substance/The level of expressed mRNA in the absence of chemical substance,yeast gene YGR174C,1.6
same,The level of expressed mRNA in the presence of chemical substance/The level of expressed mRNA in the absence of chemical substance,yeast gene YGR244C,1.8
same,The level of expressed mRNA in the presence of chemical substance/The level of expressed mRNA in the absence of chemical substance,yeast gene YHR008C,0.9
same,The level of expressed mRNA in the presence of chemical substance/The level of expressed mRNA in the absence of chemical substance,yeast gene YIL155C,1.0
same,The level of expressed mRNA in the presence of chemical substance/The level of expressed mRNA in the absence of chemical substance,yeast gene YJL096W,1.3
same,The level of expressed mRNA in the presence of chemical substance/The level of expressed mRNA in the absence of chemical substance,yeast gene YJL102W,0.9
same,The level of expressed mRNA in the presence of chemical substance/The level of expressed mRNA in the absence of chemical substance,yeast gene YJL133W,0.9
same,The level of expressed mRNA in the presence of chemical substance/The level of expressed mRNA in the absence of chemical substance,yeast gene YJL166W,1.4
same,The level of expressed mRNA in the presence of chemical substance/The level of expressed mRNA in the absence of chemical substance,yeast gene YJL180C,1.0
same,The level of expressed mRNA in the presence of chemical substance/The level of expressed mRNA in the absence of chemical substance,yeast gene YJR045C,0.8
same,The level of expressed mRNA in the presence of chemical substance/The level of expressed mRNA in the absence of chemical substance,yeast gene YJR077C,0.8
